The record followed here is US20200270588A1, “GLUCOSYL TRANSFERASE POLYPEPTIDES AND METHODS OF USE” (Syngenta Participations AG, priority 2017, published 2020).

Common to all, as to format: biochemical
Assay [1] has as its target T1, SEQ ID NO 20, mutant of Zea mays bx9 glucosyl transferase (Zea mays, UniProt B4G072, A281K/A334K/F21Y/L194V/M279F/S117V).
T1 construct: His tag (C); made in house
Conditions: lower block, concentration printed only in upper block: V 0.300, VII 0.210; IV, VIII, XI, XXI, XX, XVIII, XVI, XV, XIV 0.200; others 1.000 mM. Here is the method:
(§1) Glucosyl transferase activity is assayed via measurement of acceptor substrate-dependent production of UDP from ultrapure UDP-glucose using the Promega UDP-Glo™ method and according to the manufacturer's instructions. Assays are run in 96 well microtiter plates.
(§2) Enzyme, typically at a stock concentration of ˜2 mg/ml is diluted to an appropriate concentration in 50 mM K^+ Hepes buffer at pH7.5 containing 0.5 mg/mL bovine serum albumin (BSA) and 5 ul aliquots of this diluted enzyme added to each well of a Perkin Elmer white ½ area 96 well plate. […] Assays are run for an appropriate time (usually 10 to 60 min) so that the amount of UDP formed lies within the most nearly linear part of the UDP standard curve and are stopped with the addition and mixing of 25 ul UDP-Glo™ detection reagent (prepared as described below). Plates are then incubated at room temperature for 60 minutes and then read in a luminescence plate reader (Perkin Elmer Envision 2130 Multilabel Reader). A UDP standard curve is run alongside each set of assays and reagent blank control assays run with DMSO in place of test herbicide.
(§3) The UDP-Glo™ reagents are made up and used according to the manufacturer's instructions. Thus, Nucleotide Detection Buffer and ATP are combined to make nucleotide detection reagent (NDR) dispensed into aliquots and frozen to be freshly thawed before use.
(§4) Km and kcat values in respect of UDP-glucose are derived by carrying out experiments to measure initial rates over a suitable range of concentrations of UDP glucose out at a fixed near saturating concentration of acceptor substrate. Best fit values of kcat, Km and kcat/Km are obtained by direct fitting of the data to the Michaelis-Menten equation using Graphpad Prism™ software.
All of these proteins were C-terminally his-tagged, expressed and purified as described in Example 1. Assays were run and analyzed as described in example 1.

Assay [2] concerns the target T2, Zea mays bx9 glucosyl transferase (C-terminally his tagged SEQ ID NO: 1) (Zea mays, UniProt B4G072).
T2 construct: His tag (C); made in house; host or cells: E. coli BL21 (DE3), pET24a
T2 sequence (B4G072 1-462): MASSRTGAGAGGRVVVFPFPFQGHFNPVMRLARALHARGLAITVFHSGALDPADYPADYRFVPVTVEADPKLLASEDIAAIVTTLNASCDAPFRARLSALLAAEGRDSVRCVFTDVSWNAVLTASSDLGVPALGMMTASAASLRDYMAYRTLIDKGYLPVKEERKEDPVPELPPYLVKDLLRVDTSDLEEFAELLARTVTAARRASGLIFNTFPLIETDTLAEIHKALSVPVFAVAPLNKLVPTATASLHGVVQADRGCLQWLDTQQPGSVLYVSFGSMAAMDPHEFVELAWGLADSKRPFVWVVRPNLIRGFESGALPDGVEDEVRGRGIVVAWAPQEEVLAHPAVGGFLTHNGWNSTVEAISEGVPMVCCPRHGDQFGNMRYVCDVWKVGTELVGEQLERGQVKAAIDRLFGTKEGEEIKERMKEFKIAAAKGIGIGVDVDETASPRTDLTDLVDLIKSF
The assay can be described thus: UDP-Glo glucosyl transferase assay, purified enzyme. As to conditions: herbicide mM: V 0.300, VI 0.250, VII 0.210; IV, VIII, XI, XXI, XX, XVIII, XVI, XV, XIV 0.200; others 1.000.

Assay [3] addresses T3, SEQ ID NO 17, zmBX9 S117V, M279F, A334K mutant (Zea mays, UniProt B4G072, A334K/M279F/S117V).
T3 construct: polypeptides were the C-terminally his-tagged; His tag (C); made in house
The description is as above. Conditions: herbicide mM: V 0.300, VI 0.250, VII 0.210; IV, VIII, XI, XXI, XX, XVIII, XVI, XV, XIV 0.200; others 1.000. Here is the method: as §1
as §2, with “herbicide. Typically, 300 pmol of UDP corresponds to a Relative Luminescence Unit (RLU) reading of about 1.5E7 and the response curve between 0 and 600 pmol is fitted to a polynomial function (see for example FIG. 2).” for “herbicide.”
as §3, §4
(§5) Variants of C-terminally his tagged SEQ ID No:1 (w/t bx9 from Zea mays), exemplified as SEQ ID 16-30, were cloned, purified and assayed as described in Example 1. FIG. 4 depicts the data from some experiments to determine the kinetic parameters of some of these variants in respect of herbicide VI and table 12 summarizes the estimates of kinetic parameters obtained from further such experiments in respect of a range of herbicides.
(§6) Table 13 summarizes the results obtained from assays, run as described in Example 1, using a variety of alcohol and aminal PSII herbicides as substrates of the Zea mays bx9 w/t (i.e. C-terminally his tagged SEQ ID no 1) and various mutants of the same, selected from SEQ ID NO: 16-30). All of these proteins were C-terminally his-tagged, expressed and purified as described in Example 1. Assays were run and analyzed as described in example 1. It is seen that various of the mutations herein and combinations thereof led to significant improvements (over the w/t bx9 protein) in catalytic activity versus various of the herbicides and that these improvements are often of sufficient magnitude to be useful for conferring improved herbicide tolerance upon crop. This is especially the case given that even the unmutated w/t bx9 enzyme which has only modest glucosyl transferase activity (for example against compounds V and VI) was nevertheless adequately active to confer significant herbicide tolerance in the glass house (as shown in example 9) even without mutational improvement. It is also seen that particular mutations can lead to very much improved activity in respect of some chemistries but not to others but that, overall, there is at least one variant within the scope of the current invention that provides significant and useful improvement in tolerance to each of the chemistries tested.

Assay [4] has as its target T4, SEQ ID NO 22, mutant of Zea mays bx9 glucosyl transferase (Zea mays, UniProt B4G072, A334K/F21Y/M279F/S117V/T220P).
T4 construct: His tag (C); made in house
The assay is described as above. Conditions: lower block, concentration printed only in upper block: V 0.300, VII 0.210; IV, VIII, XI, XXI, XX, XVIII, XVI, XV, XIV 0.200; others 1.000 mM. The method, then: as §1
as §2, with “herbicide. Typically, 300 pmol of UDP corresponds to a Relative Luminescence Unit (RLU) reading of about 1.5E7 and the response curve between 0 and 600 pmol is fitted to a polynomial function (see for example FIG. 2).” for “herbicide.”
as §3, §4, §5, §6

For assay [5], the target named is T5, SEQ ID NO 21, mutant of Zea mays bx9 glucosyl transferase (Zea mays, UniProt B4G072, A334K/F21Y/L194V/M279F/S117V).
T5 construct: His tag (C); made in house
The description is as above. As to conditions: lower block, concentration printed only in upper block: V 0.300, VII 0.210; IV, VIII, XI, XXI, XX, XVIII, XVI, XV, XIV 0.200; others 1.000 mM. Here is the method: as §1
as §2, with “herbicide. Typically, 300 pmol of UDP corresponds to a Relative Luminescence Unit (RLU) reading of about 1.5E7 and the response curve between 0 and 600 pmol is fitted to a polynomial function (see for example FIG. 2).” for “herbicide.”
as §3, §4, §5, §6

Assay [6] addresses T6, SEQ ID NO 18, mutant of Zea mays bx9 glucosyl transferase (Zea mays, UniProt B4G072, A281K/A334K/F21Y/M279F/S117V).
T6 construct: His tag (C); made in house
The assay is described as above. As to conditions: herbicide mM: V 0.300, VI 0.250, VII 0.210; IV, VIII, XI, XXI, XX, XVIII, XVI, XV, XIV 0.200; others 1.000. The method, then: as §1
as §2, with “herbicide. Typically, 300 pmol of UDP corresponds to a Relative Luminescence Unit (RLU) reading of about 1.5E7 and the response curve between 0 and 600 pmol is fitted to a polynomial function (see for example FIG. 2).” for “herbicide.”
(§7) The UDP-Glo™ reagents are made up and used according to the manufacturer's instructions. Thus, Nucleotide Detection Buffer and ATP are combined to make nucleotide detection reagent (NDR) dispensed into aliquots and frozen to be freshly thawed before use. […]
as §6

For assay [7], the target named is T7, SEQ ID NO 23, mutant of Zea mays bx9 glucosyl transferase (Zea mays, UniProt B4G072, A334K/F21Y/L194C/M279F/S117V).
T7 construct: His tag (C); made in house
Described as above. As to conditions: lower block, concentration printed only in upper block: V 0.300, VII 0.210; IV, VIII, XI, XXI, XX, XVIII, XVI, XV, XIV 0.200; others 1.000 mM. Here is the method: as §1
as §2, with “herbicide. Typically, 300 pmol of UDP corresponds to a Relative Luminescence Unit (RLU) reading of about 1.5E7 and the response curve between 0 and 600 pmol is fitted to a polynomial function (see for example FIG. 2).” for “herbicide.”
as §7, §6

The target in assay [8] is T8, SEQ ID NO 19, mutant of Zea mays bx9 glucosyl transferase (Zea mays, UniProt B4G072, A281K/A334K/L194V/M279F/S117V).
T8 construct: His tag (C); made in house
The assay is described as above. As to conditions: herbicide mM: V 0.300, VI 0.250, VII 0.210; IV, VIII, XI, XXI, XX, XVIII, XVI, XV, XIV 0.200; others 1.000. Here is the method:
as §1
as §2, with “herbicide. Typically, 300 pmol of UDP corresponds to a Relative Luminescence Unit (RLU) reading of about 1.5E7 and the response curve between 0 and 600 pmol is fitted to a polynomial function (see for example FIG. 2).” for “herbicide.”
as §7, §6

Assay [9] is described as follows: LC/MS plate assay of crude E. coli extracts, Zea mays bx8 derivatives, herbicide V. As to conditions: LC/MS. Here is the method:
In an alternative method for assaying the various enzymes, the test glucosyl transferase enzyme is reacted with substrates exactly as above except that the assay is stopped by adding an equal volume of acetonitrile. Alternatively 50 or 100 μl samples from assay reactions are added to 500 μl ethyl acetate to stop the reaction. In this case samples are then vortexed and 400 μl of the ethyl acetate partition removed, dried down, and resuspended in 100 μl 80:20 acetonitrile/water. The formation of product gluco side and/or disappearance of substrate test herbicide is then monitored directly by LC/MS. Samples are analyzed by LC-MS using an Agilent 1290 liquid chromatography system and Thermo Q-Exactive mass spectrometer. The chromatography is achieved on a Waters Acquity C18 BEH (50×2.1 mm) 1.7 μm particle size column, using a 6 minute gradient run of Water (0.2% formic acid) and Acetonitrile. The Q-Exactive is operated in positive ionisation electrospray mode, using Full scan-AIF mode, at 35,000 resolution, between 100-800 m/z. All analytes are identified from the full scan data to within at least 5 ppm accuracy of their predicted pseudo-molecular ion [M+H]^+ m/z value. In order to obtain quantitative data standard curves are run using herbicides and herbicide glucosides synthesized as standards. Where these synthetic glucosides were not available the LC/MS assay could only be used to provide relative data.
The glucosyl transferase activities of the mutant bx8-derived polypeptides expressed in these strains were initially assayed versus herbicide V as described in Example 1. The partly purified C-terminally his tagged w/t bx8 enzyme (SEQ ID No: 2) catalyzed glucosyl transfer to herbicide V at a low rate estimated to be less than about 0.002/s at 1 mM herbicide V which, because of a relatively high background of UDP formation in the DMSO (no substrate reagent control) was difficult to quantify using the luminescence assay. Thus further assays were run by LC/MS using which technique the formation of an O-beta glucosyl glucoside of herbicide V could more easily be confirmed but only quantified in a relative sense. Thus the various derivatives of C-terminally his tagged Zea mays bx8 SEQ ID No:2 were cloned and expressed in E. coli BL21 (DE3) as described in Example 1 and assayed in plates as crude extracts, as in Example 2, but monitored by LCMS rather than the luminescence assay.
The different stereoisomer standards chromatographed distinctly on LC (FIGS. 8A-8H). By comparing the LC elution profiles of the standards with the enzyme products at the correct mass it was possible to characterize which polypeptides catalyzed the formation of which O-glucosides. Assay samples and glucoside conjugate standards are run using the identical chromatographic conditions to allow us to identify the conjugate isomer formed in the assay. In short, as would be expected for inverting glucosyl transferases all of the bx enzymes tested produced beta glucoside products (from the alpha-UDP-glucose substrate) from all herbicides tested. But there can be subtle variations between enzymes in stereochemistry of the products made at other chiral centers.

T8 sequence (B4G072 whole entry S117V/L194V/M279F/A281K/A334K): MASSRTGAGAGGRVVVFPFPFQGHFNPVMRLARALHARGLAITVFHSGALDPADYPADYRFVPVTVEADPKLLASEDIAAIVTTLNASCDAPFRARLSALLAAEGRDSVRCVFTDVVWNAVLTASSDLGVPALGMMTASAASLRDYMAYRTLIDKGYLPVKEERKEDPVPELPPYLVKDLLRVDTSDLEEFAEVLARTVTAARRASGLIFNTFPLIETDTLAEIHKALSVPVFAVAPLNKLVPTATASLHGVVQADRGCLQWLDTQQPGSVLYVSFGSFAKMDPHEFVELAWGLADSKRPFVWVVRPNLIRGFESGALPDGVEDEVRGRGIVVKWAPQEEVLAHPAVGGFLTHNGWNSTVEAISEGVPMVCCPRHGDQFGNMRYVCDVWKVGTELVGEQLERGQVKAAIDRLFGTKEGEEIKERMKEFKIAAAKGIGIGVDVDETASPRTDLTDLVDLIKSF
T3 sequence (B4G072 whole entry S117V/M279F/A334K): as the sequence (B4G072 whole entry S117V/L194V/M279F/A281K/A334K) above, with V194L, K281A counted along it
T5 sequence (B4G072 whole entry F21Y/S117V/L194V/M279F/A334K): as the sequence (B4G072 whole entry S117V/L194V/M279F/A281K/A334K) above, with F21Y, K281A counted along it
T7 sequence (B4G072 whole entry F21Y/S117V/L194C/M279F/A334K): as the sequence (B4G072 whole entry S117V/L194V/M279F/A281K/A334K) above, with F21Y, V194C, K281A counted along it
T6 sequence (B4G072 whole entry F21Y/S117V/M279F/A281K/A334K): as the sequence (B4G072 whole entry S117V/L194V/M279F/A281K/A334K) above, with F21Y, V194L counted along it
T4 sequence (B4G072 whole entry F21Y/S117V/T220P/M279F/A334K): as the sequence (B4G072 whole entry S117V/L194V/M279F/A281K/A334K) above, with F21Y, V194L, T220P, K281A counted along it
T1 sequence (B4G072 whole entry F21Y/S117V/L194V/M279F/A281K/A334K): as the sequence (B4G072 whole entry S117V/L194V/M279F/A281K/A334K) above, with F21Y counted along it

On to `C[C@@H]1C(=O)N(c2noc(C(C)(C)C)c2C#N)C(O)[C@H]1C` (stereo partly drawn) [XXVI], for which the Activity in [1] is 0.143 pmol/sec/pmol enzyme; in [2], −0.001 pmol/sec/pmol enzyme; in [3] it was 0.020 pmol/sec/pmol enzyme; in assay [4], 0.073 pmol/sec/pmol enzyme; in assay [5], 0.040 pmol/sec/pmol enzyme; in assay [6], 0.051 pmol/sec/pmol enzyme. The Activity in [7] came to 0.034 pmol/sec/pmol enzyme; in assay [8] it was 0.095 pmol/sec/pmol enzyme.

B1: SEQ ID NO: 58: zmBX8/zmBX9 hybrid polypeptide (protein)
chain: MAASCGGRVVVFPFPFQGHFNPVMRLARALHARGVGITVFHTAGARAPDPADYPADYRFVPVPVEVAPELMASEDIAAIVTALNAACEAPFRDRLSALLSAADGEAGEAGGRVRCVLTDVSWDAVLSAARGLGVPALGVMTASAATFRVYMAYRTLVDKGYLPVREERKDDAVAELPPYRVKDLLRHETCDLEEFADLLGRVIAAARLSSGLIFHTFPFIEAGTLGEIRDDMSVPVYAVAPLNKLVPTATASLHGVVQADRGCLQWLDAQRARSVLYVSFGSMAAMDPHEFVELAWGLADAGRPFVWVVRPNLIRGFESGALPDGVEDRVRGRGVVVSWAPQEEVLAHPAVGGFFTHCGWNSTVEAVSEGVPMICHPRHGDQYGNARYVCHVWKVGTEVAGDQLERGEIKAAIDRLMGGSEEGEGIRKRMNELKIAADKGIDESAGSDLTNLVHLINSY
modifications: Hybrid sequence between Zea mays Bx8 and Bx9 sequences
notes: zmBX8/zmBX9 hybrid polypeptide
On to B1, for which the “activity with herbicide V” value in [9] is “active”.
